Assay [1] has as its system H. pylori strain 26695. The experiment in a line: Minimum inhibitory concentration (MIC) on plates, parental strain. It is filed as cell-based, Helicobacter pylori. The source says: (§1) Minimal Inhibitory Concentration (MIC). To determine the MIC for amoxicillin, suspensions of H. pylori estimated to contain […] bacteria/ml (OD600 nm of 0.1) were serially diluted and grown on plates containing various concentrations of amoxicillin. The MIC was defined as the amoxicillin concentration leading to a decrease of 3 log of CFU/ml as compared to growth without amoxicillin.
(§2) To determine the MIC of different antibiotics, suspensions of H. pylori estimated to contain 10^8 bacteria/ml (OD600 nm of 0.1) were serially diluted and grown on plates containing various concentrations of amoxicillin. The MIC was defined as the minimal concentration leading to a decrease of 3 log of CFU/ml as compared to growth without antibiotic. Minimum bactericidal concentration (MBC) for amoxicillin was done as follow. Bacteria were grown in increasing concentrations of amoxicillin in liquid culture and OD600 nm was monitored. After 18 hours, CFU/ml counts were determined for each amoxicillin concentration. MBC was defined as the concentration leading to a 3 log decrease of CFU/ml as compared as growth without amoxicillin.

For assay [2], the system named is H. pylori 26695 amiA mutant. The experiment in a line: Minimum inhibitory concentration (MIC) on plates, amiA mutant. It is filed as cell-based, Helicobacter pylori.
Text: as §1, §2

The subject of assay [3] is H. pylori strain 26695. The experiment in a line: Minimum bactericidal concentration (MBC) in liquid culture, parental strain. In kind it is cell-based, Helicobacter pylori. The procedure: as §2
The test system of assay [4] is H. pylori 26695 amiA mutant. Kind of assay: Minimum bactericidal concentration (MBC) in liquid culture, amiA mutant. The following applies: 18 hours, maximum concentration tested 32 μg/ml. It is filed as cell-based, Helicobacter pylori. The procedure: as §2
In assay [5] the test system is H. pylori strain 26695. The experiment in a line: Morphological transition into coccoid forms after amoxicillin (scanning electron microscopy), parental strain. To be noted: 3-4 h exposure to amoxicillin (10 μg/ml) after 18 h of growth without antibiotic. In kind it is cell-based, Helicobacter pylori. The procedure:
(§3) Some stress signals, including amoxicillin treatment, can induce the morphological transition into coccoid forms. The inventors investigated the response of the ami A mutant to amoxicillin. First the inventors determined the MIC of amoxicillin: it was identical for the ami A mutant and the parental strain 26695 (0.06 μg/ml). After overnight culture, 10 μg/ml of amoxicillin was added to the media and after three hours of antibiotic treatment bacteria were observed by scanning electron microscopy. […] Thus, AmiA is required both for PG modifications and morphological transition.
(§4) For scanning electron microscopy (SEM), samples were washed in PBS, prefixed in 2.5% glutaraldehyde in 0.1M cacodylate buffer for 30 minutes and then rinsed in 0.2M cacodylate buffer. After post-fixation in 1% osmium tetraoxide (in 0.2M cacodylate buffer), bacteria were dehydrated in a series of ethanol concentrations. Specimens were critical-point dried using carbon dioxide, then coated with gold and examined with a JEOL JSM-6700F SEM.

The subject of assay [6] is H. pylori 26695 amiA mutant. The experiment in a line: Morphological transition into coccoid forms after amoxicillin (scanning electron microscopy), amiA mutant. In kind it is cell-based, Helicobacter pylori. How it is done:
as §3, §4

Assay [7] relates to H. pylori 26695 amiA− complemented. Kind of assay: Minimum inhibitory concentration (MIC) on plates, complemented amiA mutant. It is filed as cell-based. To be noted: Helicobacter pylori, read-out: MIC (μg/ml of amoxicillin). The procedure: as §2
Assay [8] has the same test system. The experiment in a line: Minimum bactericidal concentration (MBC) in liquid culture, complemented amiA mutant. It is filed as cell-based, Helicobacter pylori. The procedure:
as §2

Assay [9] addresses T1, human Nod2 (Homo sapiens, UniProt Q9HC29).
T1 construct: host or cells: HEK293T
The experiment in a line: Nod2-dependent NF-κB luciferase activation in transfected HEK293T cells. In kind it is cell-based. To be noted: HEK293T cells transfected with hNod2 and luciferase reporter; FIG. 4D. From the text: Expression Plasmids, Transient Transfections and NF-κB Activation Assays. The expression plasmid for FLAG-tagged hNod1 was from Gabriel Nuñez (University of Michigan Medical School, Ann Arbor, Mich.) and has been described previously. The expression plasmid for hNod2 was from Gilles Thomas (Foundation Jean Dausset/CEPH, Paris, France). HEK293T cells were used for transfections as described previously. Synergistic activation of NF-κB by PGs, muramyl peptides, and related compounds in cells over-expressing Nod1 or Nod2 was studied as described by Inohara et al.. Briefly, HEK293T cells were transfected overnight with 10 ng of hNod1 or 30 ng of hNod2 plus 75 ng of Ig luciferase reporter plasmid. PG samples (0.1 μg/ml) were digested with 0.25 μg/μl mutanolysin. At the same time, 0.3 μg of PG preparations or 10 pmol of muramyl-peptides were added to the cell culture medium, and synergistic NF-κB-dependent luciferase activation was measured after 24 h of co-incubation. NF-κB-dependent luciferase assays were performed in duplicate, and data reported represent at least three independent experiments. Data was standardized with positive controls: M-dipeptide for hNod2 and M-tripeptide for hNod1. hNod1 and hNod2 were activated with H. pylori PG (0.3 μg/ml) digested with M1 or Slt70 as previously described.

Setting [10] is: Helicobacter pylori, other antibiotics, read-out: MIC.

The structures appear in SMILES notation. ≈ marks a conversion by molar mass, not a printed value. Where two headings read alike, the source gives them in different places. Positions of bridges follow the written chain, without caps; N, C: chain ends. Non-standard residues stand in square brackets, D forms with d. Residues, ends and D or L forms follow the SMILES beside them. *: point of attachment. Ileψ(thiazoline)Cys = CC[C@H](C)[C@H](N)C1=N[C@H](C(=O)*)CS1; dOrn = NCCC[C@@H](N)C(=O)O A value given as a limit tells only on which side of the number the result lay.

T1 sequence (Q9HC29 whole entry): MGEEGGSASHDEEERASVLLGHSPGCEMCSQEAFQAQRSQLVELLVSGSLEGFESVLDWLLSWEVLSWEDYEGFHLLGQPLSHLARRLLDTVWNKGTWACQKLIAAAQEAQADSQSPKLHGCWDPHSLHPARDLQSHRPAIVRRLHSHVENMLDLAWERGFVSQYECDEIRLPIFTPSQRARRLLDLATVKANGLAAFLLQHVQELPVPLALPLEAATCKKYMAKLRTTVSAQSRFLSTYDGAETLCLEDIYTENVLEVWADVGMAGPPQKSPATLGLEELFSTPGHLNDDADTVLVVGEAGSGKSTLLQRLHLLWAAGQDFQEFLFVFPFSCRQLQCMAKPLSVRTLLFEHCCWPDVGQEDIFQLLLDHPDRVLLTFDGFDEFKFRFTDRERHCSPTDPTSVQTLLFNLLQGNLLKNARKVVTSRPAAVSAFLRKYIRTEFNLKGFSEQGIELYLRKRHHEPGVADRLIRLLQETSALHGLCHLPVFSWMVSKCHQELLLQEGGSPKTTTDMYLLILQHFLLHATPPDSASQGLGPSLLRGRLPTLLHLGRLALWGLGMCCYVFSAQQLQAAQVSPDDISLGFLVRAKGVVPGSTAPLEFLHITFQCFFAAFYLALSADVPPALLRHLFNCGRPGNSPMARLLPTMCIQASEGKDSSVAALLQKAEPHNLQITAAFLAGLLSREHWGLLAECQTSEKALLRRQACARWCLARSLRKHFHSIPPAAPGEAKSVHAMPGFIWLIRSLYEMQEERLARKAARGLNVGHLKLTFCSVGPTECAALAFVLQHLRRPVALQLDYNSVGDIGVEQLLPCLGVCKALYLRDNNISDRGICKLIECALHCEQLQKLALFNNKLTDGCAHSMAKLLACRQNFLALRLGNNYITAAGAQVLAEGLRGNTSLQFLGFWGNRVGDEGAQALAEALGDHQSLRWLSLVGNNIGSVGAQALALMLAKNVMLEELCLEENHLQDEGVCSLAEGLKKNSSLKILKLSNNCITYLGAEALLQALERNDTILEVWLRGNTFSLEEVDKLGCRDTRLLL

Regarding `[H]/N=C(/N)N[C@H]1[C@H](O)[C@@H](O)[C@H](O[C@@H]2O[C@@H](C)[C@](O)(C=O)[C@H]2O[C@@H]2O[C@@H](CO)[C@H](O)[C@@H](O)[C@@H]2NC)[C@@H](N/C(N)=N\[H])[C@@H]1O` [Streptomycin], the MIC in assay [1] (setting [10]) and in assay [2] (Helicobacter pylori) was 1 µg/mL (≈ 1.72 µM) each time.

In the case of `CCn1cc(C(=O)O)c(=O)c2ccc(C)nc21` [Nalidixic acid], the MIC in assay [1] (setting [10]) and in [2] (Helicobacter pylori) was 30 µg/mL (≈ 129 µM) in each case.

For `CC[C@H](C)[C@H](N)C1=N[C@H](C(=O)N[C@@H](CC(C)C)C(=O)N[C@H](CCC(=O)O)C(=O)N[C@H](C(=O)N[C@H]2CCCCNC(=O)[C@H](CC(N)=O)NC(=O)[C@@H](CC(=O)O)NC(=O)[C@H](Cc3cnc[nH]3)NC(=O)[C@@H](Cc3ccccc3)NC(=O)[C@H]([C@@H](C)CC)NC(=O)[C@@H](CCCN)NC2=O)[C@@H](C)CC)CS1` [Bacitracin] ({Ileψ(thiazoline)Cys}-L[dE]IK[dOrn]I[dF]H[dD]N; lactam 4-C), the MIC in [1] (setting [10]) and in [2] (Helicobacter pylori) was greater than 1000 µg/mL in each case.

`CC1(C)S[C@@H]2[C@H](NC(=O)[C@H](N)c3ccc(O)cc3)C(=O)N2[C@H]1C(=O)O` [amoxicillin]: the “Ratio MBC/MIC” value is 1 in [3] and 2 in [8]. The “MCB (μg/ml of amoxicillin)” value in assay [3] (liquid culture, 18 hours, 3 log decrease of CFU/ml) is 0.06 µg/mL; in assay [4], greater than 32 µg/mL; in assay [8] (liquid culture, 18 hours), 0.250 µg/mL. Also, the “% of coccoids (includes U and donut forms)” value in assay [5] is recorded as 56.64%; in assay [6] (26695 amiA−, 3-4 h exposure to amoxicillin (10 μg/ml) after 18 h of growth without antibiotic), 32.60%. For the same molecule, in [6] (10 μg/ml amoxicillin, three hours, after overnight culture, scanning electron microscopy), the “Morphology of amiA mutant after amoxicillin” value was “formed chains of spherical bacteria”. Further, in assay [6] (exposure to 100 times its MIC), the “Coccoid formation of amiA mutant after amoxicillin” value is given as “still induced coccoid formation”. The MIC in assay [7] was 0.125 µg/mL; in assay [1] (Helicobacter pylori, 3 log decrease of CFU/ml, read-out: MIC (μg/ml of amoxicillin)), 0.06 µg/mL; in assay [2] (Helicobacter pylori, read-out: MIC (μg/ml of amoxicillin)), 0.06 µg/mL.

Consider `CC(=O)NC1C(OC2C(CO)OC(O)C(NC(C)=O)C2OC(C)C(=O)NC(C)C(=O)NC(CCC(=O)O)C(=O)O)OC(CO)C(O)C1O` [GM-dipeptide, N-acetyl-D-glucosminyl-β(1,4)-N-acetylmuramyl-L-Ala-D-Glu], for which, in [9], the “Nod2-dependent activation of NF-κB” value was “detected via Nod2 in a dose dependent manner”.

Take `Cc1ncc([N+](=O)[O-])n1CCO` [Metronidazole]: the MIC in assay [1] (setting [10]) and in [2] (Helicobacter pylori) was 1 µg/mL (≈ 5.84 µM) each time.

With `COc1cc(Cc2cnc(N)nc2N)cc(OC)c1OC` [Trimethroprime], the “MIC” value in [1] (other antibiotics) was greater than 100 µg/mL; in assay [2] (26695 amiA mutant, other antibiotics), greater than 100 µg/mL.

With `CN[C@H](CC(C)C)C(=O)N[C@H]1C(=O)N[C@@H](CC(N)=O)C(=O)N[C@H]2C(=O)N[C@H]3C(=O)N[C@H](C(=O)N[C@H](C(=O)O)c4cc(O)cc(O)c4-c4cc3ccc4O)[C@H](O)c3ccc(c(Cl)c3)Oc3cc2cc(c3O[C@@H]2O[C@H](CO)[C@@H](O)[C@H](O)[C@H]2O[C@H]2C[C@](C)(N)[C@H](O)[C@H](C)O2)Oc2ccc(cc2Cl)[C@H]1O` [Vancomycin], the MIC in assay [1] (setting [10]) and in assay [2] (Helicobacter pylori) was greater than 1000 µg/mL each time.

The values are drawn from US20070042448A1, “Use of enzymes from Helicobacter pylori as therapeutical targets” (priority 2005, published 2007).
